The source made the active and inactive calls. The rule behind the calls is not given here.
Molecular target: MCHR1
Experiment: antagonism of melanin-concentrating hormone receptor MCHR1 – cell-based, fluorescence, dose response, set 2, selectivity assay for GPR7 antagonist project, late-stage follow-up (AID 504889)
Conditions: MCHR1-expressing cells, antagonist mode

| Structure (SMILES) | IC50 (run 1) | IC50 (run 2) | IC50 (run 3) [µM] |
| --- | --- | --- | --- |
| COc1ccc(Oc2c(Cl)cnn(-c3ccc(C)cc3)c2=O)cc1 | inactive | inactive |  |
| COc1ccc(Oc2c(Br)cnn(-c3ccc(C)cc3)c2=O)cc1 | inactive | inactive |  |
| COc1ccc(Oc2c(C)cnn(-c3ccc(C(C)C)cc3)c2=O)cc1 | 9.81 µM | 8.05 µM |  |
| COc1ccc(Oc2c(Cl)cnn(-c3ccc(C(C)(C)C)cc3)c2=O)cc1 | 2.7 µM | 8.99 µM |  |
| Cc1ccc(-n2ncc(Cl)c(Oc3ccc(OC(F)(F)F)cc3)c2=O)cc1 | 2.9 µM | 4.98 µM |  |
| Cc1ccc(-n2ncc(Cl)c(Oc3ccc(C(F)(F)F)cc3)c2=O)cc1 | 5.51 µM | 8.4 µM |  |
| COc1ccc(Oc2c(Cl)cnn(-c3cccc(C(C)C)c3)c2=O)cc1 | 1.72 µM | 2.37 µM |  |
| COc1ccc(Oc2c(Cl)cnn(-c3cccc4ccccc34)c2=O)cc1 | 8.39 µM | 4.46 µM |  |
| Cc1ccc(-n2ncc(Cl)c(Oc3ccc(CO)cc3)c2=O)cc1 | > 20 µM (inactive) | > 20 µM (inactive) |  |
| COc1ccc(Oc2c(C#N)cnn(-c3ccc(C(C)C)cc3)c2=O)cc1 | 7.47 µM | 7.6 µM |  |
| COc1ccc(Oc2c(C=O)cnn(-c3ccc(C(C)C)cc3)c2=O)cc1 | 4.78 µM | 5.15 µM |  |
| CCOc1ccc(Oc2c(Cl)cnn(-c3ccc(C)cc3)c2=O)cc1 | inactive | 8.62 µM |  |
| CCc1ccc(-n2ncc(Cl)c(Oc3ccc(OC)cc3)c2=O)cc1 | 3.92 µM | inactive |  |
| COC(=O)c1cnn(-c2ccc(C(C)C)cc2)c(=O)c1Oc1ccc(OC)cc1 | 6.89 µM | 4.95 µM |  |
| COc1ccc(Oc2c(Cl)cnn(-c3cc(C)cc(C)c3)c2=O)cc1 | 3.94 µM | 5.04 µM | 2.68 |
| COc1ccc(Oc2c(C3CC3)cnn(-c3ccc(C)cc3)c2=O)cc1 | 5.41 µM | inactive |  |
| COc1ccc(Oc2c(Cl)cnn(-c3ccc(C(C)C)c(C)c3)c2=O)cc1 | 1.96 µM | 1.71 µM |  |
| COc1ccc(Oc2c(Cl)cnn(-c3ccc(C(C)C)cc3)c2=O)cc1 | 3.1 µM | 4.3 µM |  |
| COc1ccc(Oc2c(-c3ccco3)cnn(-c3ccc(C)cc3)c2=O)cc1 | inactive | > 20 µM (inactive) |  |
| CCC(C)c1ccc(-n2ncc(Cl)c(Oc3ccc(OC)cc3)c2=O)cc1 (centres undefined) | 2.17 µM | 4.71 µM |  |
| COc1ccc(Oc2c(Cl)cnn(-c3cccc(C)c3)c2=O)cc1 | 5.39 µM | 6.79 µM |  |
| CCc1ccc(Oc2c(Cl)cnn(-c3ccc(C)cc3)c2=O)cc1 | 5.02 µM | 3.09 µM |  |
| COc1ccc(Oc2c(-c3ccccc3)cnn(-c3ccc(C)cc3)c2=O)cc1 | inactive | > 20 µM (inactive) |  |
| COc1ccc(Oc2c(-c3cccs3)cnn(-c3ccc(C)cc3)c2=O)cc1 | > 20 µM (inactive) | > 20 µM (inactive) |  |

Source: PubChem BioAssay AID504889 (The Scripps Research Institute Molecular Screening Center, 2011)
